pIC50, pKd: −log10 of the molar value. Non-standard residues stand in square brackets, D forms with d. Residues, ends and D or L forms follow the SMILES beside them. *: point of attachment. X1 = O=C(O)c1cc(NC(=S)*)ccc1-c1c2ccc(=O)cc-2oc2cc(O)ccc12; Lys(Me3) = C[N+](C)(C)CCCC[C@H](N)C(=O)O; Benzoyl(4-Br) = O=C(c1ccc(Br)cc1)*; Gly(cPent) = N[C@H](C(=O)O)C1CCCC1; Abu = CC[C@H](N)C(=O)O
Legend:
[1] = molecular target: T1, E3 SUMO-protein ligase CBX4 (Homo sapiens, UniProt O00257); experiment: Binding affinity to CBX4 (unknown origin) assessed as dissociation constant by fluorescence polarization analysis
T1 sequence (O00257 whole entry): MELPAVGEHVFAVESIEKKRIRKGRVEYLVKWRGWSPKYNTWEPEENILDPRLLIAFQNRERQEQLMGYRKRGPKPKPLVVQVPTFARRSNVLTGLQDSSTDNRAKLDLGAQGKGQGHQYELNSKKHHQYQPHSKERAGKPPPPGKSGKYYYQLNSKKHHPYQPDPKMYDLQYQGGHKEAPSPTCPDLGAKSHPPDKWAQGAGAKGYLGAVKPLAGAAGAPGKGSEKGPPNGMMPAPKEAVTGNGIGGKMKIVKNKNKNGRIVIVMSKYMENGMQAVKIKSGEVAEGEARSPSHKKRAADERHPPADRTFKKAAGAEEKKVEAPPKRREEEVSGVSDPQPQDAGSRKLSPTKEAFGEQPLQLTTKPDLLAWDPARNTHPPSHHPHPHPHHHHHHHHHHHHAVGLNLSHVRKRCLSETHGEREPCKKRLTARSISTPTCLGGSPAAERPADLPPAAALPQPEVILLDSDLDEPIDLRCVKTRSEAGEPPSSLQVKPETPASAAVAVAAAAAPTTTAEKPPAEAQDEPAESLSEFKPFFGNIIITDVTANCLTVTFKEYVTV

[2] = molecular target: T2, Chromobox protein homolog 7 (Homo sapiens, UniProt O95931); experiment: Binding affinity to CBX7 (unknown origin) assessed as dissociation constant by fluorescence polarization analysis
T2 sequence (O95931 whole entry): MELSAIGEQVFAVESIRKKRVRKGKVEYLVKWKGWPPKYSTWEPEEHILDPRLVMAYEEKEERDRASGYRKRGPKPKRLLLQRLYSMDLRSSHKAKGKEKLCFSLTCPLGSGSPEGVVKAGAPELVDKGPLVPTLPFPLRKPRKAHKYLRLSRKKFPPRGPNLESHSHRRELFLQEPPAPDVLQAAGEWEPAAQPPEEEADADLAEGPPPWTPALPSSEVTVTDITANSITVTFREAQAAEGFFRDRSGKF

[3] = molecular target: T3, Chromobox protein homolog 8 (Homo sapiens, UniProt Q9HC52); experiment: Binding affinity to CBX8 (unknown origin) assessed as dissociation constant by fluorescence polarization analysis
T3 sequence (Q9HC52 whole entry): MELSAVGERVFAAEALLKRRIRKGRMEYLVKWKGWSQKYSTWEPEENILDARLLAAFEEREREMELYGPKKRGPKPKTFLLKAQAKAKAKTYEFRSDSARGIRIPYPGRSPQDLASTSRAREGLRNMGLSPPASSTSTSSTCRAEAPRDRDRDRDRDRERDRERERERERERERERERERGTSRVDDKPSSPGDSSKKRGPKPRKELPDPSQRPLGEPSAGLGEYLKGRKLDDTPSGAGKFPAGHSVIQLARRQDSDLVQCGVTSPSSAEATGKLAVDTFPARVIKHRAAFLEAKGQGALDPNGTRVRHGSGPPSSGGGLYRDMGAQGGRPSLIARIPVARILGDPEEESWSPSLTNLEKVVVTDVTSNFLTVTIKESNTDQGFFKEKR

[4] = molecular target: Chromobox protein homolog 1 (Homo sapiens, UniProt P83916); experiment: Binding affinity to CBX1 (unknown origin) assessed as dissociation constant by fluorescence polarization analysis
[5] = molecular target: T4, Chromobox protein homolog 2 (Homo sapiens, UniProt Q14781); experiment: Binding affinity to CBX2 (unknown origin) assessed as dissociation constant by fluorescence polarization analysis
T4 sequence (Q14781 whole entry): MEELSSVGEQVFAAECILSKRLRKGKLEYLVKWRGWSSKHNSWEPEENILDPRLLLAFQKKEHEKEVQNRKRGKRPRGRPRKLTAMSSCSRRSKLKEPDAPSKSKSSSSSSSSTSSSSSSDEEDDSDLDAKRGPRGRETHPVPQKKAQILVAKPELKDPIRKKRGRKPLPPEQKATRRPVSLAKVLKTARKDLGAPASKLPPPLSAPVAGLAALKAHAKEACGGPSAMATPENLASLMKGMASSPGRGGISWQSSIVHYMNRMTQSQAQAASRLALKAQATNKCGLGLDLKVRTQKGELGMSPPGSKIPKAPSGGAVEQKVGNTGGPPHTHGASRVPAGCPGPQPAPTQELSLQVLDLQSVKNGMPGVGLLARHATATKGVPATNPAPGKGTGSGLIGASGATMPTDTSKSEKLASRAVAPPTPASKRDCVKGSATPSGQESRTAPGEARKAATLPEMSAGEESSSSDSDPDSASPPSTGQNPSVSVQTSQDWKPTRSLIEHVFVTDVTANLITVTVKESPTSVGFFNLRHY

[6] = molecular target: T5, Chromobox protein homolog 6 (Homo sapiens, UniProt O95503); experiment: Binding affinity to CBX6 (unknown origin) assessed as dissociation constant by fluorescence polarization analysis
T5 sequence (O95503 whole entry): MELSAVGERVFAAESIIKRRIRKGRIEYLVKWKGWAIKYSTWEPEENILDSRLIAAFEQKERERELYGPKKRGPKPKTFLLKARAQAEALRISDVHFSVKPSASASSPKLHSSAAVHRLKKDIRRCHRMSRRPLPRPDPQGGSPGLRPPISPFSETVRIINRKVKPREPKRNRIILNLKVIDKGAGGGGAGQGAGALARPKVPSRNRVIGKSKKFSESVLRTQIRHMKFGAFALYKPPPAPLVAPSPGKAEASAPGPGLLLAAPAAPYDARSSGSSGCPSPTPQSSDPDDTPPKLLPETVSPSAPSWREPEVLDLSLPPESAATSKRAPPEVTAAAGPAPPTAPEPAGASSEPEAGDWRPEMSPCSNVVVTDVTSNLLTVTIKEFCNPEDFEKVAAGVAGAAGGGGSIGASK

Homo sapiens [7] = organism: Homo sapiens; experiment: Selectivity ratio of Kd for CBX4 (unknown origin) to Kd for CBX8 (unknown origin)
Homo sapiens [8] = organism: Homo sapiens; experiment: Selectivity ratio of Kd for CBX2 (unknown origin) to Kd for CBX8 (unknown origin)
Homo sapiens [9] = organism: Homo sapiens; experiment: Selectivity ratio of Kd for CBX7 (unknown origin) to Kd for CBX8 (unknown origin)
Homo sapiens [10] = organism: Homo sapiens; experiment: Selectivity ratio of Kd for CBX1 (unknown origin) to Kd for CBX8 (unknown origin)
Homo sapiens [11] = organism: Homo sapiens; experiment: Selectivity ratio of Kd for CBX7 (unknown origin) to Kd for CBX6 (unknown origin)
[12] = molecular target: T5, Chromobox protein homolog 6; experiment: Inhibition of CBX6 (unknown origin) assessed as […] by competitive FP assay
Homo sapiens [13] = organism: Homo sapiens; experiment: Selectivity ratio of IC50 for CBX8 (unknown origin) to IC50 for CBX7 (unknown origin)
[14] = molecular target: T3, Chromobox protein homolog 8; experiment: Inhibition of CBX8 (unknown origin) assessed as […] by competitive FP assay
Homo sapiens [15] = organism: Homo sapiens; experiment: Selectivity ratio of IC50 for CBX6 (unknown origin) to IC50 for CBX7 (unknown origin)
[16] = molecular target: T2, Chromobox protein homolog 7; experiment: Inhibition of CBX7 (unknown origin) assessed as […] by competitive FP assay
TOV21G = experiment: Decrease in cell viability in human TOV21G cells by MTT assay; assay type: cell-based
[17] = Drug uptake in nucleus of human PC3 cells by live cell imaging analysis; assay type: ADME, cell-based; settings: pc-3
[18] = Drug uptake in nucleus of human TOV21G cells by live cell imaging analysis; assay type: ADME, cell-based
[19] = Drug uptake in human PC3 cells assessed as endosomal entrapment by measuring characteristic punctate dots in the cytoplasm at 10 uM by cell imaging analysis; assay type: ADME, cell-based; settings: pc-3, 10 µM
[20] = Drug uptake in human TOV21G cells assessed as endosomal entrapment by measuring characteristic punctate dots in the cytoplasm at 10 uM by cell imaging analysis; assay type: ADME, cell-based
[21] = Drug uptake in cytoplasm of human PC3 cells by live cell imaging analysis; assay type: ADME, cell-based; settings: pc-3
[22] = Drug uptake in cytoplasm of human TOV21G cells by live cell imaging analysis; assay type: ADME, cell-based

Sequence of Chromobox protein homolog 1 (P83916 whole entry): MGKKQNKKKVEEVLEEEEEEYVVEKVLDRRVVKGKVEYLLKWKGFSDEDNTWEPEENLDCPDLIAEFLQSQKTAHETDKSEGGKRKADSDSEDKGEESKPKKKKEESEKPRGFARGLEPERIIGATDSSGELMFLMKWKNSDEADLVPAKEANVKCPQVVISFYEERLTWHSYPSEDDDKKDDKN

`CC(=O)N[C@@H](Cc1ccccc1)C(=O)N[C@@H](Cc1ccccc1)C(=O)N[C@@H](C)C(=O)N[C@@H](CC(C)C)C(=O)N[C@@H](CCCC[N+](C)(C)C)C(=O)N[C@@H](CO)C(=O)N[C@@H](CCC(=O)O)C(=O)N[C@@H](CCCCNC(=S)Nc1ccc(-c2c3ccc(=O)cc-3oc3cc(O)ccc23)c(C(=O)O)c1)C(N)=O` (Ac-FFAL[Lys(Me3)]SEK(X1)-NH2) showed a pKd [1] of 4.82, a pKd [2] of 5.82 and a pKd [3] of 5.59. It also gave a pKd [4] of 3.96, a pKd [5] of 4.74 and a pKd [6] of 6.00.

`CC[C@H](NC(=O)[C@H](Cc1ccccc1)NC(=O)[C@H](Cc1ccccc1)NC(C)=O)C(=O)N[C@H](C(=O)N[C@@H](CCCC[N+](C)(C)C)C(=O)N[C@@H](CO)C(=O)N[C@@H](CCC(=O)O)C(=O)N[C@@H](CCCCNC(=S)Nc1ccc(-c2c3ccc(=O)cc-3oc3cc(O)ccc23)c(C(=O)O)c1)C(N)=O)C1CCCC1` (Ac-FF[Abu][Gly(cPent)][Lys(Me3)]SEK(X1)-NH2) gave a pKd [1] of 4.95, a Selectivity ratio (Homo sapiens [7]) of 14 to 135 and a Selectivity ratio (Homo sapiens [8]) of 14 to 135. For the same compound, the pKd [2] was 5.82, the Selectivity ratio (Homo sapiens [9]) was 2 and the Selectivity ratio (Homo sapiens [10]) was 14 to 135. For the same compound, the pKd [3] was 6.15, the Selectivity ratio (Homo sapiens [11]) was 4 and the pKd [4] was 4.00. It also gave a pKd [5] of 5.00 and a pKd [6] of 6.40.

Work on `C[C@H](NC(=O)[C@H](Cc1ccccc1)NC(=O)c1ccc(Br)cc1)C(=O)N[C@@H](Cc1ccc(O)cc1)C(=O)N[C@@H](CCCC[N+](C)(C)C)C(=O)N[C@@H](CO)C(N)=O` ({Benzoyl(4-Br)}-FAY[Lys(Me3)]S-NH2) yielded a pIC50 [12] of 4.80, a Ratio IC50 (Homo sapiens [13]) of 18 and a pIC50 [14] of 4.38. For the same compound, the Ratio IC50 (Homo sapiens [15]) was 7 and the pIC50 [16] was 5.64.

For `C[C@H](NC(=O)[C@H](Cc1ccccc1)NC(=O)c1ccc(Br)cc1)C(=O)N[C@@H](Cc1ccc(O)cc1)C(=O)N[C@@H](CCCC[N+](C)(C)C)C(=O)N[C@@H](CO)C(=O)N[C@@H](CCC(=O)O)C(N)=O` ({Benzoyl(4-Br)}-FAY[Lys(Me3)]SE-NH2), the pIC50 [12] was 5.22, the pIC50 [14] was 4.92 and the pIC50 [16] was 5.70. The Activity (TOV21G) was “Non-Toxic”.

In the case of `C[C@H](NC(=O)[C@H](Cc1ccccc1)NC(=O)c1ccc(Br)cc1)C(=O)N[C@@H](Cc1ccc(O)cc1)C(=O)N[C@@H](CCCC[N+](C)(C)C)C(=O)N[C@@H](CO)C(=O)N[C@@H](CCC(=O)O)C(=O)N[C@@H](CCCCNC(=S)Nc1ccc(-c2c3ccc(=O)cc-3oc3cc(O)ccc23)c(C(=O)O)c1)C(N)=O` ({Benzoyl(4-Br)}-FAY[Lys(Me3)]SEK(X1)-NH2), the Drug uptake [17] was “Not Active”, the Drug uptake [18] was “Not Active” and the pKd [2] was 7.92. For the same compound, the Drug uptake [19] was “Active”, the Drug uptake [20] was “Active” and the pKd [3] was 6.20. For the same compound, the Drug uptake [21] was “Not Active”, the Drug uptake [22] was “Not Active” and the pKd [4] was 5.32. For the same compound, the Activity (TOV21G) was “Toxic” and the pKd [6] was 7.33.

Reference: ChEMBL document CHEMBL4609983, “Pan-specific and partially selective dye-labeled peptidic inhibitors of the polycomb paralog proteins” (Bioorg Med Chem, 2020)
